This test deals with Non-transgenic maize seed from inbred N46. Put plainly: Priming matrix additives: Dormex + DMSO. In kind it is in vivo. The note with it: 1% DMSO without Dormex, 3 hours, 95 seed. As to the method: Non-transgenic maize seed from inbred N46 were primed with 0, 5, 10, 15, or 30% Dormex® solutions with and without 1% DMSO. For each treatment, 96 seeds were soaked in 50 ml of Dormexe solution in a petri dish for 3 hours at room temperature. After priming the seeds were transferred into pollination bags, and dried overnight in front of a fan. Dried primed seed were then planted into flats to germinate.

For `C[S+](C)[O-]` [DMSO], the Germination % amounted to 93% and the Seedlings was 88.
